One may read the EC50 as the concentration at which the effect is half-maximal.

These results are taken from patent US12617756B2 (ABIVAX, priority 2019, dated 2026).

Structures are written as SMILES.

For this test, the system named is RSV A2. The experiment in a line: Screening for RSV inhibition using Viral ToxGlo assay (cytopathic effect inhibition in HEp-2 cells). Type of test: cell-based, Respiratory Syncytial Virus (RSV). The following applies: human respiratory syncytial virus; RSV A2 in HEp-2 cells, MOI 0.5, 72h p.i., cytopathic effect inhibition relative to virus control, Viral ToxGlo luminescence. On the procedure:
Protocol for Screening Antiviral Compounds for RSV Inhibition and Cytotoxicity Using Viral ToxGlo Assay
HEp-2 cells were maintained in Eagle's minimum essential medium (EMEM) with Earle's BSS adjusted to contain 2 mM L-glutamine, 10% fetal bovine serum, 100 U/ml penicillin and 100 µg/ml streptomycin. For the purposes of the screening assay they were grown to 90% confluency, trypsinized and recovered. The trypsin was neutralised with cell culture media and cells were centrifuged at 150×g for 5 minutes before discarding the supernatant and resuspending cell pellet in assay media (EMEM with Earle's BSS adjusted to contain 2 mM L-glutamine, 2% fetal bovine serum and 100 U/ml penicillin and 100 µg/ml streptomycin). The cells were seeded into white clear-bottomed cell culture plates at a density of 1.5×10^4 cells/well in 50 μl and 4×10^3 cells/well in 25 μl for 96 well plates and 384 well plates respectively. For the media/background control column assay media only was added. Cell plates were placed in a humid chamber and incubated overnight at 37° C./5% CO2. After overnight incubation cells were checked for confluency and healthy appearance.
Test articles were made up at 10× test concentration in a maximum DMSO concentration of 10% (final assay concentration maximal 1% DMSO) and added to the cell plates in volumes of […] for 96 well plates and 5 μl for 384 well plates. For cell control and virus control wells the test article solvent only was added. Virus or assay media for cytotoxicity test wells and media/cell control wells was added immediately after test articles at an MOI of […] for 96 and 384 well plates respectively. Virus suspension was prepared by thawing RSV A2 frozen stocks and diluting to the required concentration of plaque forming units in assay media on ice.
Cell plates were further incubated inside a humid chamber for 72h p.i at 37° C./5% CO2. After the incubation period cells were observed under the microscope to check for characteristic cytopathic effect in virus control wells and healthy cells in the cell control wells. After plates were adjusted to room temperature 20/40 μl Viral ToxGlo (Promega) was added to each well of the 384/96 well cell plates. Plates were incubated at room temperature, protected from light on a plate rocker for 20 minutes before measuring the luminescence on a spectrophotometer (Biotek Synergy HTX).
On the technique in general: Cytopathic effects are the visible damage that an infection or toxin causes in cultured cells.
In the case of `O=C(N=C1NCCN1)c1ccc(Nc2cccc(C(=O)NCCC3CCOCC3)c2)c(C2CC2)c1` [Compound 58, 3-cyclopropyl-N-[(2E)-imidazolidin-2-ylidene]-4-[(3-{[2-(oxan-4-yl)ethyl]carbamoyl}phenyl)amino]benzamide], the EC50 turned out to be 207 nM.
For the compound `O=C(N=C1NCCN1)c1ccc(Nc2cccc(C(=O)NC3CC3)c2Cl)c(C2CC2)c1` [Compound 25, 4-{[2-chloro-3-(cyclopropylcarbamoyl)phenyl]amino}-3-cyclopropyl-N-[(2Z)-imidazolidin-2-ylidene]benzamide], the EC50 was 32.2 nM.
As for `O=C(N=C1NCCN1)c1cc(F)c(Nc2cccc(C(=O)N3CCOCC3)c2)c(C2CC2)c1` [Compound 119, 3-cyclopropyl-5-fluoro-N-[imidazolidin-2-ylidene]-4-{[3-(morpholine-4-carbonyl)phenyl]amino}benzamide], the figure is 108 nM; as for `CC(C)C1COCCN1C(=O)c1cccc(Nc2ccc(C(=O)N=C3NCCN3)cc2C2CC2)c1Cl` (centres unmarked) [Compound 104, 4-({2-chloro-3-[3-(propan-2-yl)morpholine-4-carbonyl]phenyl}amino)-3-cyclopropyl-N-[(2Z)-imidazolidin-2-ylidene]benzamide], 12.4 nM; as for `CC(C)(C)c1cc(C(=O)N=C2NCCN2)ccc1Nc1cccc(C(=O)NCCC2CCOCC2)c1` [Compound 39, 3-tert-butyl-N-[(2E)-imidazolidin-2-ylidene]-4-[(3-{[2-(oxan-4-yl)ethyl]carbamoyl}phenyl)amino]benzamide], 66.2 nM.
In the case of `O=C(N=C1NCCN1)c1cc(F)c(Nc2nccc(C(=O)NC34CC(C3)C4)c2Cl)c(C2CC2)c1` [Compound 164], the EC50 amounted to 3.8 nM.
`O=C(N=C1NCCN1)c1ccc(Nc2cccc(C(=O)N3CCOCC3)c2C2CC2)c(C(F)(F)F)c1` [Compound 42, 4-{[2-cyclopropyl-3-(morpholine-4-carbonyl)phenyl]amino}-N-[(2Z)-imidazolidin-2-ylidene]-3-(trifluoromethyl)benzamide]: the EC50 is 78.4 nM.
`CC(C)C1CN(C(=O)c2cccc(Nc3ccc(C(=O)N=C4NCCN4)cc3C3CC3)c2Cl)CCO1` (centres unmarked) [Compound 105, 4-({2-chloro-3-[2-(propan-2-yl)morpholine-4-carbonyl]phenyl}amino)-3-cyclopropyl-N-[(2Z)-imidazolidin-2-ylidene]benzamide]: the EC50 turned out to be 3.2 nM.
Turning to `CC(C)C(=O)Nc1cccc(Nc2ccc(C(=O)N=C3NCCN3)cc2Cl)c1` [Compound 72, 3-chloro-N-[(2E)-imidazolidin-2-ylidene]-4-{[3-(2-methylpropanamido)phenyl]amino}benzamide], the concentration for a half-maximal effect (EC50) stood at 1230 nM.
Turning to `O=C(N=C1NCCN1)c1cc(F)c(Nc2cccc(C(=O)N3CCOCC3)c2Cl)c(C2CCOC2)c1` (centres unmarked) [Compound 134, 4-{[2-chloro-3-(morpholine-4-carbonyl)phenyl]amino}-3-fluoro-N-[imidazolidin-2-ylidene]-5-(oxolan-3-yl)benzamide], the EC50 amounted to 39.2 nM.
For the compound `CC(C)C(=O)Nc1cccc(Nc2ccc(C(=O)N=C3NCCN3)cc2C2CC2)c1` [Compound 26, 3-cyclopropyl-N-[(2E)-imidazolidin-2-ylidene]-4-{[3-(2-methylpropanamido)phenyl]amino}benzamide], the EC50 was determined as 34.4 nM.
Consider `CC(C)=CCn1nnnc1-c1cccc(Nc2ccc(C(=O)N=C3NCCN3)cc2C2CC2)c1` [Compound 60, 3-cyclopropyl-N-[(2Z)-imidazolidin-2-ylidene]-4-({3-[1-(3-methylbut-2-en-1-yl)-1H-1,2,3,4-tetrazol-5-yl]phenyl}amino)benzamide], for which the EC50 came out at 241 nM.
Take `CC1(NC(=O)c2nccc(Nc3ccc(C(=O)N=C4NCCN4)cc3C3CC3)c2Cl)CC1` [Compound 150, 3-chloro-4-[(2-cyclopropyl-4-{[imidazolidin-2-ylidene]carbamoyl}phenyl)amino]-N-(1-methylcyclopropyl)pyridine-2-carboxamide]: the EC50 came to 263 nM.
As to `CC1(NC(=O)c2cccc(Nc3c(F)cc(C(=O)N=C4NCCN4)cc3C3CC3)c2F)CC1` [Compound 143, 3-cyclopropyl-5-fluoro-4-({2-fluoro-3-[(1-methylcyclopropyl)carbamoyl]phenyl}amino)-N-[imidazolidin-2-ylidene]benzamide], the concentration for a half-maximal effect (EC50) was 59.7 nM.
Under `N#CC1(NC(=O)c2ccnc(Nc3c(F)cc(C(=O)N=C4NCCN4)cc3C3CC3)c2F)CC1` [Compound 152, N-(1-cyanocyclopropyl)-2-[(2-cyclopropyl-6-fluoro-4-{[imidazolidin-2-ylidene]carbamoyl}phenyl)amino]-3-fluoropyridine-4-carboxamide] stands 1140 nM; under `O=C(N=C1NCCN1)c1ccc(Nc2cccc(C(=O)N3CCOC(C(F)(F)F)C3)c2Cl)c(C2CC2)c1` (centres unmarked) [Compound 121, 4-({2-chloro-3-[2-(trifluoromethyl)morpholine-4-carbonyl]phenyl}amino)-3-cyclopropyl-N—[imidazolidin-2-ylidene]benzamide], 5.1 nM.
For `O=C(N=C1NCCN1)c1ccc(Nc2cccc(C(=O)N3C[C@@H]4C[C@H]3CO4)c2Cl)c(C2CC2)c1` [Compound 120, 4-({2-chloro-3-[(1S,4S)-2-oxa-5-azabicyclo[2.2.1]heptane-5-carbonyl]phenyl}amino)-3-cyclopropyl-N—[imidazolidin-2-ylidene]benzamide], the EC50 worked out at 19.5 nM.
Take `O=C(N=C1NCCN1)c1ccc(Nc2cccc(C(=O)N3CCOCC3)c2Cl)c(C(F)(F)F)c1` [Compound 16, 4-{[2-chloro-3-(morpholine-4-carbonyl)phenyl]amino}-N-[(2E)-imidazolidin-2-ylidene]-3-(trifluoromethyl)benzamide]: the EC50 amounted to 15.6 nM.
As to `CC(C)(C)c1cc(C(=O)N=C2NCCN2)ccc1Nc1cccc(OCC2COCCO2)c1` (centres unmarked) [Compound 52, 3-tert-butyl-4-({3-[(1,4-dioxan-2-yl)methoxy]phenyl}amino)-N-[(2E)-imidazolidin-2-ylidene]benzamide], the EC50 amounted to 142 nM.
For the compound `Cc1c(Nc2ccc(C(=O)N=C3NCCN3)cc2C2CC2)cccc1-c1ncc(Cl)[nH]1` [Compound 57, 4-{[3-(5-chloro-1H-imidazol-2-yl)-2-methylphenyl]amino}-3-cyclopropyl-N-[(2Z)-imidazolidin-2-ylidene]benzamide], the concentration for a half-maximal effect (EC50) stood at 200 nM.
For `O=C(N=C1NCCN1)c1cc(F)c(Nc2nccc(C(=O)N3C[C@@H]4C[C@H]3CO4)c2F)c(C2CC2)c1` [Compound 159, 3-cyclopropyl-5-fluoro-4-({3-fluoro-4-[(1S,4S)-2-oxa-5-azabicyclo[2.2.1]heptane-5-carbonyl]pyridin-2-yl}amino)-N—[imidazolidin-2-ylidene]benzamide], the EC50 turned out to be 225 nM.
Regarding `CC1(NC(=O)c2cccc(Nc3ccc(C(=O)N=C4NCCN4)cc3C3CCCO3)c2Cl)CC1` (centres unmarked) [Compound 137, 4-({2-chloro-3-[(1-methylcyclopropyl)carbamoyl]phenyl}amino)-N-[imidazolidin-2-ylidene]-3-(oxolan-2-yl)benzamide], the EC50 worked out at 204 nM.
Regarding `CC(=O)N1CCN/C1=N\C(=O)c1ccc(Nc2cccc(OCCCC3CCCCC3)c2)c(C2CC2)c1` [Compound 46, N-[(2E)-1-acetylimidazolidin-2-ylidene]-4-{[3-(3-cyclohexylpropoxy)phenyl]amino}-3-cyclopropylbenzamide], the EC50 is 104 nM.
